# Results from patent publication EP2118065B1, “Substituted 1H-benz[de]isoquinoline-1,3-diones” (priority 2007, dated 2008).
# What was measured:
# MOLT-4 cells [1] = assay: Flow cytometric DNA cell cycle analysis (sub-G1 fraction); assay type: cell-based, Human; details: 24 hr
# Method: Effect of DNA content by cell cycle phase distribution was assessed using MOLT-4 cells. […] The incubation period was 3 hrs in case of camptothecin and 24 hrs. in rest of the treatments. The cells were then washed twice with ice-cold PBS, harvested, fixed with ice-cold PBS in 70% ethanol, and stored at -20 °C for 30 min. After fixation, the cells were incubated with RNase A (0.1 mg/ml) at 37°C for 30 min, stained with propidium iodide (50 µg/ml) for 30 min on ice in dark, and then measured for DNA content using BD-LSR Flow cytometer (Becton Dickinson, USA) equipped with electronic doublet, discrimination capability using blue (488nm) excitation from argon laser. Data were collected in list mode on 10,000 events for FL2-A vs. FL2-W and analyzed using Mod Fit 2.0 software (Fig 4). […] The sub-G1 fractions for control and camptothecin were 0.64 (Fig. 4A) and 11.92 % (Fig. 4B).
# S-180 = assay: In vivo anticancer activity: increase in median survival time; design: species or system Swiss albino male mice; details: S-180, 7 injns.
# MOLT-4 cells [2] = assay: Light and transmission electron microscopy of apoptosis; assay type: cell-based, Human
# Method: Cell culture and treatment: Human T lymphoblast; acute lymphoblastic leukemia line MOLT-4 was procured from NCCS, Pune, India. The cells were cultured in RPMI-1640 medium supplemented with 10% FCS, 100 units penicillin and 100 µg streptomycin per ml. Cells were grown in CO2 incubator (SHEL-LAB, USA) at 37° C, 90% humidity and 5% CO2 gas environment and were treated during sub-confluent stage with Compound 3f dissolved in DMSO at the concentration of 1, 5 and 10µM while control cells received only the vehicle (DMSO < 0.5%).
# Light and Transmission Electron Microscopy: MOLT-4 control, Compound 3f treated cells at different time intervals were washed in phosphate buffered saline, centrifuged at 1500 rpm for ten minutes and the pellets were divided into 1mm^3 pieces and fixed immediately in 2.5% glutaraldehyde in 0.1M phosphate buffer (pH 7.2) for 2 hr at 4°C, post-fixed with 1% OsO4 in the same buffer for 2 hr, dehydrated with acetone, cleared in propylene oxide and embedded in Epon-812^6 [Hayat, M. A. (1981) Principles and Techniques of Electron Microscopy. Biological Applications Vol. 1. Edward Arnold Publishers, London, U.K.] Semithin (1µm) sections were cut, stained with toluidine blue and studied under Olympus Research Microscope (VANOX). The photography was done using Olympus Digital Camera (C4000).
# Ultrathin sections of silver colour (60-90 nm) were cut on a LKB ultramicrotome (Ultrotome-IV, mounted on copper grids and stained with uranyl acetate and lead citrate. The sections were viewed and photographed in a JEOL-100CXII electron microscope at 60 kV.
# Detection of apoptosis in tissue sections. Cell Tissue Res. 301: 19-31] at different time intervals to study the mechanism of cell death. […] Compound 3f treated MOLT-4 cells, the condensation of the nuclear material, with a marked accumulation of densely stained chromatin was seen. In majority of the treated cells the chromatin was seen typically at the edge of the nucleus. This was accompanied by cell shrinkage and cytoplasmic vacuoles. The disintegration of the nucleus into smaller fragments was also seen (Fig. 7B). […]
# S-180 cells = assay: 3H-thymidine and 3H-uridine incorporation in vitro (DNA and RNA synthesis)
smiles,measurement,setting,value
"O=C1c2cccc3c([N+](=O)[O-])ccc(c23)C(=O)N1CCCCl [Compound 3f, 6-Nitro-2-[3-(Chloropropyl)]-1H-benz[de]isoquinoline-1,3-dione]",sub-G1 fraction (apoptotic),MOLT-4 cells [1]; 1.5 µg/ml,4.52%
same,sub-G1 fraction (apoptotic),MOLT-4 cells [1]; 5 µg/ml,5.86%
same,MST,"S-180; 30 mg/kg i.p., days 1-7",25.0 days
same,MST,"S-180; 60 mg/kg i.p., days 1-7",29.0 days
same,MST,"S-180; 60 mg/kg i.p., days 5-11",21.0 days
same,apoptotic cells by light microscopy,MOLT-4 cells [2]; 1µM,no apoptotic cells were observed
same,apoptotic cells by light microscopy,"MOLT-4 cells [2]; 5µM, 24 - 48 hr",only a-few apoptotic cells were observed
same,apoptotic cells by light microscopy,"MOLT-4 cells [2]; 10µM, 36 hrs",seen in majority of cells
same,inhibition at 8 µM,"S-180 cells; Mus musculus, S-180, read-out: DNA synthesis inhibition (3H-thymidine uptake)",90%
same,RNA synthesis inhibition (3H-uridine uptake),"S-180 cells; S-180 cells, 8 µM, 1 hr incubation, with respect to control",80%
